Experiment [1] deals with T1, Bub1 (Homo sapiens, UniProt O43683).
T1 construct: catalytic domain of human Bub1 (amino acids 704-1085); His6 (N); made in house; host or cells: Hi5 insect cells
Kind of experiment: Bub1 TR-FRET high ATP kinase assay. The class given is biochemical. Particulars: Bub1 high ATP (2 mM) IC50 [mol/l], 2 mM ATP. The source says:
Bub1 High ATP Kinase Assay
Bub1-inhibitory activity of compounds of the present invention at a high ATP concentration was quantified employing the Bub1 TR-FRET high ATP kinase assay as described in the following paragraphs.
N-terminally His6-tagged recombinant catalytic domain of human Bub1 (amino acids 704-1085), expressed in insect cells (Hi5) and purified by Ni-NTA affinity chromatography and subsequent size exclusion chromatography, was used as enzyme. As substrate for the kinase reaction the biotinylated peptide biotin-Ahx-[…]—SEQ ID 7 (C-terminus in amid form) was used which can be purchased e.g. form the company Biosyntan (Berlin, Germany).

The target of experiment [2] is T2, EGFR with insertion of SVD between D770 and N771 (EGFR ins SVD) (Homo sapiens, UniProt P00533, DUP768-770).
T2 construct: made in house; host or cells: Sf9 insect cells (baculovirus)
The experiment in a line: Exon20-Mutant-EGFR(D770_N771insSVD) kinase assay (TR-FRET). Format: biochemical. To be noted: 2 mM ATP, several values per example where printed.

Experiment [3] deals with Ba/F3-EGFR-insSVD cells (Homo sapiens, UniProt P00533, DUP768-770, cells depend on it). The experiment in a line: Ba/F3 cell survival assay (Cell Titer-Glo), EGFR-insSVD. The class given is cell-based. To be noted: without IL-3, with 10 ng/mL EGF, 48 h; read-out: BA/F3 (insSVD) IC50. The method, then:
(§1) 293T cells from ATCC were transfected with pBABEpuro expression constructs for WT EGFR or EGFR-insSVD and pCL-Eco packaging vector using Fugene-6 transfection reagent from Promega. Plates were incubated at 37° C. for 48 h. Retrovirus was harvested by filtering the media supernatant through a 0.45 μm filter.
(§2) Ba/F3 cells purchased from DSMZ were grown in RPMI+10% FBS+10 ng/mL IL-3 and infected with filtered retroviral supernatant at a 1:2 dilution. Polybrene was added to a concentration of 8 μg/mL, plates were spun for 90 min, and incubated overnight at 37° C. 2 μg/mL puromycin was added to the infected cells 24 h after infection and cells were continually grown in the presence of puromycin and 10 ng/mL IL-3. Following stably expressing Ba/F3 cell lines were generated: Ba/F3-EGFR-WT, Ba/F3-EGFR-insSVD, (Ba/F3-vector-control).
(§3) For cell survival assays, Ba/F3 cells were grown to a density of 1-2 million cells per mL, spun down and resuspended in media without IL-3, and replated at a concentration 200,000-500,000 cells per mL. The cells ectopically expressing WT EGFR or EGFR-insSVD were plated with 10 ng/mL Millipore Culture grade EGF. The cells ectopically expressing pBABEpuro empty vector were plated with 10 ng/mL IL-3. 2 days later, cells were plated in 50 μL in a 384 well plate at a concentration of 4000 cells per well for cells assayed in the absence of IL-3 and 2000 cells per well for cells assayed in the presence of IL-3. 100 nL of compound was added to each well using a 100 nL pin head, and plates were incubated at 37° C. for 48 h.
(§4) Cell viability was measured by adding 20 μL of Cell Titer-Glo Luminescent Cell Viability Reagent diluted 1:3 in PBS. Plates were sealed with Perkin Elmer Top-Seal, inverted several times to mix, and immediately centrifuged at 1000 rpm for 2 min. Plates were incubated in low light conditions for 8-10 min and luminescence was measured.

Experiment [4] has as its target Ba/F3-EGFR-WT cells (Homo sapiens, UniProt P00533). The experiment in a line: Ba/F3 cell survival assay (Cell Titer-Glo), WT EGFR. The class given is cell-based. To be noted: without IL-3, with 10 ng/mL EGF, 48 h; read-out: BA/F3 (wild type) IC50. The method, then:
as §1, §2, §3, §4

pIC50: −log10 of the molar value. A value given as a limit tells only on which side of the number the result lay.

Sequence of Ba/F3-EGFR-WT cells (P00533 whole entry, change not shown): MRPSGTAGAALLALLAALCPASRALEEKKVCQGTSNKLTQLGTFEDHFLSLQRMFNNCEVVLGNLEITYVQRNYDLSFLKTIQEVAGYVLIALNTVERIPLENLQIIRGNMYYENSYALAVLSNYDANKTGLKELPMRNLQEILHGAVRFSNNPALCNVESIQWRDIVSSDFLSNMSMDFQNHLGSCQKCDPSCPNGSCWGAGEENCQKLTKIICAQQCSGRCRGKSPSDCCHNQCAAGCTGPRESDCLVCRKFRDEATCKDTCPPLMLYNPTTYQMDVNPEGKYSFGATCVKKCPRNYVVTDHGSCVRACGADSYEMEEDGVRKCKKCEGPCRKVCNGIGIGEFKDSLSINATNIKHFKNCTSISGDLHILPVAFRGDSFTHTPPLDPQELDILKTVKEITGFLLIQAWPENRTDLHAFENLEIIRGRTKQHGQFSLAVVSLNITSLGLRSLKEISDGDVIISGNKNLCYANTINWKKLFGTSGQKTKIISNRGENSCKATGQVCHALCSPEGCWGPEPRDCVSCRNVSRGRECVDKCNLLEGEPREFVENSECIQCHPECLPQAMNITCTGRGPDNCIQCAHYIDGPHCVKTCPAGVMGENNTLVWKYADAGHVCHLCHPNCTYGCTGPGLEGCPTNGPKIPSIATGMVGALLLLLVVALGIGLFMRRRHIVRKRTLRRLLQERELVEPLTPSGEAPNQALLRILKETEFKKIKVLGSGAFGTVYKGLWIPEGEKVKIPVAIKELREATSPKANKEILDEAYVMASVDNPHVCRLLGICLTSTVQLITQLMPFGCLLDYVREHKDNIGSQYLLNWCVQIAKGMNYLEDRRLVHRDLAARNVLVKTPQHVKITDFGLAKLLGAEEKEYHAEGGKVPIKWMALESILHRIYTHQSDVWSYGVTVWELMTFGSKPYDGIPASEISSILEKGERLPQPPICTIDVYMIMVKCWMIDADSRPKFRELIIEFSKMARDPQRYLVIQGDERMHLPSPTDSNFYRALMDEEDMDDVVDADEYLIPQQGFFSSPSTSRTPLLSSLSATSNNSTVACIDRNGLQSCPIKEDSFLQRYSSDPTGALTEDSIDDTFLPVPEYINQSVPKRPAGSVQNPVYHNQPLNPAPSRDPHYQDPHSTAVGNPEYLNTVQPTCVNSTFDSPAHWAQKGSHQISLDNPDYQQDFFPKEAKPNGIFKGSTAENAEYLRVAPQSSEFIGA
T2 sequence (P00533 with tags, fused parts or gaps DUP768-770): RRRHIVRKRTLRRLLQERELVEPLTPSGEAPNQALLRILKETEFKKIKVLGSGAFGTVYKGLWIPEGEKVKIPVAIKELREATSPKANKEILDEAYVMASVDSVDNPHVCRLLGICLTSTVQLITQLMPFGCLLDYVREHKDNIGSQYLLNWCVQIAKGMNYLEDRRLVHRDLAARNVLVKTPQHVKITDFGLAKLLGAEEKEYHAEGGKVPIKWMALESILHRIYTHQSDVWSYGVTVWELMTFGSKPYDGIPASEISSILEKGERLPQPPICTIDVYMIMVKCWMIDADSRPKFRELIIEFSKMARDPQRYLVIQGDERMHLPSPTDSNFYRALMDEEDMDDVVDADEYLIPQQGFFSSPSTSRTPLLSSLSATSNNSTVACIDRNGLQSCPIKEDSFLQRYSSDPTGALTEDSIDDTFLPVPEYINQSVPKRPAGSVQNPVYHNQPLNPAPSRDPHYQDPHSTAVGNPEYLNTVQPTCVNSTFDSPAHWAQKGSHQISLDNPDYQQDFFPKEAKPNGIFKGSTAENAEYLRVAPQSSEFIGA
T1 sequence (O43683 704-1085): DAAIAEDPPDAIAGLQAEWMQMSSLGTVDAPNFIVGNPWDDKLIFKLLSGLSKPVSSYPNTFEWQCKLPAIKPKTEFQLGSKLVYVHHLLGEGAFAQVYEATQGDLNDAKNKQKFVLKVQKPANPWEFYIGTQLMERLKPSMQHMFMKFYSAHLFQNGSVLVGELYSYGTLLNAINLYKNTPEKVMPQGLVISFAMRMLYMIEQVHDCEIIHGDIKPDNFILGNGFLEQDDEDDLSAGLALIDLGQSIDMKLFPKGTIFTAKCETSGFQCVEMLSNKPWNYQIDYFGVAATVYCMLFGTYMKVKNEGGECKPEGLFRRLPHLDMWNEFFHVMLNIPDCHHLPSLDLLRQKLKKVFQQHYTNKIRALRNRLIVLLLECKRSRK
Sequence of Ba/F3-EGFR-insSVD cells (P00533 with tags, fused parts or gaps DUP768-770): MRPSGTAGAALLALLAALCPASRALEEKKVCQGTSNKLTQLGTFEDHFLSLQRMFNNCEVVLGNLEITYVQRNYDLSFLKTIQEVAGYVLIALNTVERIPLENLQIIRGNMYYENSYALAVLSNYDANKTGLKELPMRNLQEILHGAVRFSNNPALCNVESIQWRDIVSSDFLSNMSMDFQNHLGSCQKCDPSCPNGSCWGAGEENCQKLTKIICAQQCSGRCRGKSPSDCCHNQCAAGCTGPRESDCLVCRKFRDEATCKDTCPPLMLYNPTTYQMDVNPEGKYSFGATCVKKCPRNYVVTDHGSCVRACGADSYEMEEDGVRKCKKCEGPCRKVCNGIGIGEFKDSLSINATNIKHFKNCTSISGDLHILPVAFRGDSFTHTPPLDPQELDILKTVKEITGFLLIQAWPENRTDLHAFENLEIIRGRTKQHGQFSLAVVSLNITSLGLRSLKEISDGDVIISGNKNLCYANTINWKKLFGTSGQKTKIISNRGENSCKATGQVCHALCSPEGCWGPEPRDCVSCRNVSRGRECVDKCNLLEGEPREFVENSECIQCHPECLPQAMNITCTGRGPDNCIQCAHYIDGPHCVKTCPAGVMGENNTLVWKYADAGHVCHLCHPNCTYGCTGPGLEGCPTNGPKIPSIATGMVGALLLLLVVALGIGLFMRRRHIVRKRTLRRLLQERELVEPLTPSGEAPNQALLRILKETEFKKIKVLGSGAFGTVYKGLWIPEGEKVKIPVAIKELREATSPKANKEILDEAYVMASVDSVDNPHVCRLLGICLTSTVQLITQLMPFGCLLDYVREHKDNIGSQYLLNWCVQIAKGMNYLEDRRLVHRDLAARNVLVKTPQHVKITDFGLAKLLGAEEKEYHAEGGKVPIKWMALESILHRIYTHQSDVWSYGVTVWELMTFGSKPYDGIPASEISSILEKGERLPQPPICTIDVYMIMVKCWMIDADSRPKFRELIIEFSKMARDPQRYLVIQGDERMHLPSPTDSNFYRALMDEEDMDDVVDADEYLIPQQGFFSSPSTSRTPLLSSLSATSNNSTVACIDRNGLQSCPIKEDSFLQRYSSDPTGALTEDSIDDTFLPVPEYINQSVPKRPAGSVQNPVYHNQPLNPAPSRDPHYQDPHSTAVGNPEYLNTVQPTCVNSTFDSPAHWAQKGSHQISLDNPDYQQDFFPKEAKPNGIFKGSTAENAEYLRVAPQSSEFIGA

`COc1c(F)cccc1Nc1c(-c2ccncc2OC[C@@H]2CN(CC(F)(F)F)CCO2)[nH]c2c1C(=O)NCC2` [Example 23, 3-(3-fluoro-2-methoxyanilino)-2-(3-{[(2S)-4-(2,2,2-trifluoroethyl)morpholin-2-yl]methoxy}pyridin-4-yl)-1,5,6,7-tetrahydro-4H-pyrrolo[3,2-c]pyridin-4-one] had a negative-log IC50 (pIC50) in experiment [1] of under 4.70. In addition, the “mutEGFR (D770_N771insSVD) kinase assay IC50” value (“mutEGFR” for short) in experiment [2] amounted to 0.169 nM. In addition, the values for the GI50 in experiment [3] and in experiment [4] were 71 nM and 648 nM, respectively.
In turn, `COc1c(Cl)cccc1Nc1c(-c2ccncc2OCC2COC(C)(C)CO2)[nH]c2c1C(=O)NCC2` (stereo not shown) [Example 30, 3-(3-chloro-2-methoxyanilino)-2-{3-[(5,5-dimethyl-1,4-dioxan-2-yl)methoxy]pyridin-4-yl}-1,5,6,7-tetrahydro-4H-pyrrolo[3,2-c]pyridin-4-one] had a pIC50 in experiment [1] of under 4.70. Moreover, the GI50 in experiment [3] turned out to be 19.3 nM; in experiment [4] it was 407 nM.
`Cc1c(F)cccc1Nc1c(-c2ccncc2OCC2COCCO2)[nH]c2c1C(=O)NCC2` (single isomer, unassigned) [Example 49, 2-[3-(1,4-dioxan-2-ylmethoxy)-4-pyridyl]-3-(3-fluoro-2-methyl-anilino)-1,5,6,7-tetrahydropyrrolo[3,2-c]pyridin-4-one]: the pIC50 in experiment [1] is 5.41. The “mutEGFR” value in experiment [2] was 0.17 nM. In addition, the GI50 came out at 53.6 nM in experiment [3] and 785 nM in experiment [4].
The matching figures for `CCc1c(F)cccc1Nc1c(-c2ccncc2OCC2COCCO2)[nH]c2c1C(=O)NCC2` (single isomer, unassigned) [Example 67, 2-(3-{[1,4-dioxan-2-yl]methoxy}pyridin-4-yl)-3-(2-ethyl-3-fluoroanilino)-1,5,6,7-tetrahydro-4H-pyrrolo[3,2-c]pyridin-4-one]: 5.68, 0.217 nM, 29 nM and 198 nM.
For `COc1c(Cl)cccc1Nc1c(-c2ccncc2OC[C@H]2COCCN2C)[nH]c2c1C(=O)NCC2` [Example 11, 3-(3-chloro-2-methoxyanilino)-2-(3-{[(3R)-4-methylmorpholin-3-yl]methoxy}pyridin-4-yl)-1,5,6,7-tetrahydro-4H-pyrrolo[3,2-c]pyridin-4-one], in experiment [1], the pIC50 was 5.36. Moreover, in experiment [2], the “mutEGFR” value was 0.286 nM. Also, the GI50 in experiment [3] is 18.7 nM; in experiment [4] it was 701 nM.
The matching figures for `CCc1c(Cl)cccc1Nc1c(-c2ccncc2OC[C@@H]2COCCO2)[nH]c2c1C(=O)NCC2` (single isomer, unassigned) [Example 53]: 5.87, 0.426 nM, 21.3 nM and 408 nM.
The matching figures for `COc1c(Cl)cccc1Nc1c(-c2ccncc2OC(C)C2CN(C)CCO2)[nH]c2c1C(=O)NCC2` (single isomer, unassigned) [Example 72, 3-(3-chloro-2-methoxyanilino)-2-[3-({1-[4-methylmorpholin-2-yl]ethyl}oxy)pyridin-4-yl]-1,5,6,7-tetrahydro-4H-pyrrolo[3,2-c]pyridin-4-one]: under 4.70, 1.41 nM, 67.3 nM and 957 nM.
For `COc1c(Cl)cc(F)cc1Nc1c(-c2ccncc2OC[C@@H]2CN(C)CCO2)[nH]c2c1C(=O)NCC2` [Example 27, 3-(3-chloro-5-fluoro-2-methoxyanilino)-2-(3-{[(2S)-4-methylmorpholin-2-yl]methoxy}pyridin-4-yl)-1,5,6,7-tetrahydro-4H-pyrrolo[3,2-c]pyridin-4-one], in that order: under 4.70, 0.118 nM, 16.9 nM and 502 nM.
For the compound `COc1c(F)cccc1Nc1c(-c2ccncc2OCCC2COCCO2)[nH]c2c1C(=O)NCC2` (single isomer, unassigned) [Example 36, 2-(3-{2-[1,4-dioxan-2-yl]ethoxy}pyridin-4-yl)-3-(3-fluoro-2-methoxyanilino)-1,5,6,7-tetrahydro-4H-pyrrolo[3,2-c]pyridin-4-one], the negative-log IC50 (pIC50) in experiment [1] was 5.55. The GI50 in experiment [3] is 68.1 nM; in experiment [4] it was 845 nM.
Regarding `COc1c(Cl)cccc1Nc1c(-c2ccncc2O[C@H](C)C2COCCO2)[nH]c2c1C(=O)NCC2` (single isomer, unassigned) [Example 61], in experiment [2], the “mutEGFR” value worked out at 0.935 nM. The GI50 in experiment [3] is 300 nM; in experiment [4] it was 3770 nM.
`Cc1c(Cl)cccc1Nc1c(-c2ccncc2OCC2COC(C)(C)CO2)[nH]c2c1C(=O)NCC2` (single isomer, unassigned) [Example 45, 3-(3-chloro-2-methyl-anilino)-2-[3-[(5,5-dimethyl-1,4-dioxan-2-yl)methoxy]-4-pyridyl]-1,5,6,7-tetrahydropyrrolo[3,2-c]pyridin-4-one] had a negative-log IC50 (pIC50) in experiment [1] of under 5.24. In addition, in experiment [2], the “mutEGFR” value stood at 0.492 nM. In addition, the GI50 in experiment [4] came to 1640 nM.
As for `COc1c(Cl)cccc1Nc1c(-c2ccncc2OCC2COC(C)(C)CO2)[nH]c2c1C(=O)NCC2` (single isomer, unassigned) [Example 31, 3-(3-chloro-2-methoxyanilino)-2-{3-[(5,5-dimethyl-1,4-dioxan-2-yl)methoxy]pyridin-4-yl}-1,5,6,7-tetrahydro-4H-pyrrolo[3,2-c]pyridin-4-one], the “mutEGFR” value in experiment [2] was 0.133 nM.
`Cc1c(Cl)cccc1Nc1c(-c2ccncc2OCC2COC(C)(C)CO2)[nH]c2c1C(=O)NCC2` (stereo not shown) [Example 44, 3-(3-chloro-2-methyl-anilino)-2-[3-[(5,5-dimethyl-1,4-dioxan-2-yl)methoxy]-4-pyridyl]-1,5,6,7-tetrahydropyrrolo[3,2-c]pyridin-4-one]: the “mutEGFR” value in experiment [2] was 0.15 nM. Besides, in experiment [3], the GI50 came out at 25.7 nM.
Compound `Cc1c(F)cccc1Nc1c(-c2ccncc2OCC2COCCO2)[nH]c2c1C(=O)NCC2` (stereo not shown) [Example 47, 2-[3-(1,4-dioxan-2-ylmethoxy)-4-pyridyl]-3-(3-fluoro-2-methyl-anilino)-1,5,6,7-tetrahydropyrrolo[3,2-c]pyridin-4-one] had a pIC50 in experiment [1] of 5.30. Also, the values for the GI50 in experiment [3] and in experiment [4] were 41.6 nM and 715 nM, respectively.
For the compound `COc1c(F)cccc1Nc1c(-c2ccncc2OCC2CN(C)CCO2)[nH]c2c1C(=O)NCC2` (single isomer, unassigned) [Example 13, 3-(3-fluoro-2-methoxyanilino)-2-{3-[(4-methylmorpholin-2-yl)methoxy]pyridin-4-yl}-1,5,6,7-tetrahydro-4H-pyrrolo[3,2-c]pyridin-4-one], the negative logarithm of the IC50 (pIC50) in experiment [1] was under 4.70. Further, the “mutEGFR” value in experiment [2] was 0.139 nM. In addition, the GI50 in experiment [4] turned out to be 1520 nM.
Consider `COc1c(Cl)cccc1Nc1c(-c2ccncc2O[C@@H](C)C2COCCO2)[nH]c2c1C(=O)NCC2` (single isomer, unassigned) [Example 58, 3-(3-chloro-2-methoxyanilino)-2-{3-[(1 S)-1-(1,4-dioxan-2-yl)ethoxy]pyridin-4-yl}-1,5,6,7-tetrahydro-4H-pyrrolo[3,2-c]pyridin-4-one], for which the pIC50 in experiment [1] was 4.86. For the same compound, the GI50 stood at 29.8 nM in experiment [3] and 519 nM in experiment [4].

Values taken from patent US12679836B2, “4H-pyrrolo[3,2-c]pyridin-4-one compounds” (Bayer Aktiengesellschaft, priority 2019, dated 2026).
